Data as given in publication PMC12399569, “Disruption of Spike Priming in Virus Entry: Tetrandrine as a Pan‐Coronavirus Inhibitor” (MedComm, 2025).

Biological target: T1, SARS-CoV-2 Spike (Severe acute respiratory syndrome coronavirus 2, UniProt P0DTC2)
T1 construct: gene S
Experiment: SPR (Reichert4, CM5 chip, Spike immobilised)
Format: binding

COc1ccc2cc1Oc1ccc(cc1)C[C@H]1c3cc(c(OC)cc3CCN1C)Oc1c(OC)c(OC)cc3c1[C@H](C2)N(C)CC3 [tetrandrine]
Kd: ~2.23 µM
